Laboratory results: ChEMBL document CHEMBL1201862, “PubChem BioAssay data set” (2004)
Active and inactive are the calls of the source.

Key:
cells = assay type: functional
[1] = Trypanosoma cruzi growth suppression in host cells – NIH3T3 host cells, beta-gal luminescence, confirmation (AID 2044); assay type: functional, cell-based;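 further: intracellular parasites grown in NIH/3T3 mouse fibroblasts as host cells; luminescent beta-galactosidase reporter signal from transgenic T. cruzi replicating inside host cells; inhibitors lower the luminescence signal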
[2] = viability loss in HepG2 hepatoma cells – cell-based, ATP luminescence, cherry-pick, activator set 2, cytotoxicity control, dose response (AID 1053143); assay type: functional
[3] = NIH3T3 cell viability loss – ATP luminescence, mouse fibroblasts, counter-screen, dose response (AID 2010); assay type: functional, cell-based;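 further: cells exposed to compound for about 90 hours before reading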
[4] = Vero E6 cell cytotoxicity, dose response, cytotoxicity control for non-replicating M. tuberculosis project, secondary assay (AID 492998); assay type: functional, VeroE6; conditions: Vero C1008
[5] = HepG2 cell cytotoxicity, dose response, cytotoxicity control for non-replicating M. tuberculosis project (AID 489018); assay type: functional; conditions: Mycobacterium tuberculosis
INS1 = assay: INS-1E survival protection against cytokine death – cell-based, luminescence, retest, dose response (AID 449756); assay type: functional; conditions: Rattus norvegicus, INS1;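 further: cell death triggered by IL-1 beta plus TNF-alpha plus IFN-gamma mixture; protective hits raise ATP signal compared with cytokine alone wells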
[6] = biological target: T1, Ubiquitin-conjugating enzyme E2 N (Homo sapiens, UniProt P61088); assay type: functional;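 further: Dose-response confirmation in a TR-FRET assay detecting UBC13-driven polyubiquitin chain formation, inhibition measured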
T1 sequence (P61088 whole entry): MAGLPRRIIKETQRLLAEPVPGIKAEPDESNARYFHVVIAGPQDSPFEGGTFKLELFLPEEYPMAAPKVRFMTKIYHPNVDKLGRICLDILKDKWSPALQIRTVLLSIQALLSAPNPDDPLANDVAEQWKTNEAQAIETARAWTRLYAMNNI

[7] = biological target: FAD-linked sulfhydryl oxidase ALR (Homo sapiens, UniProt P55789); assay: ALR-catalysed DTT oxidation blockers – biochemical, H2O2 detection, luminescence, cherry-pick, dose response (AID 493248)
[8] = THP-1 cell cytotoxicity, dose response, cytotoxicity control for non-replicating M. tuberculosis project (AID 489025); assay type: functional
[9] = biological target: T2, Calpain-2 catalytic subunit (Sus scrofa, UniProt P43367); assay: m-calpain protease blockers, concentration series – biochemical, fluorogenic peptide substrate, dose response (AID 1420); assay type: functional
T2 sequence (P43367 whole entry): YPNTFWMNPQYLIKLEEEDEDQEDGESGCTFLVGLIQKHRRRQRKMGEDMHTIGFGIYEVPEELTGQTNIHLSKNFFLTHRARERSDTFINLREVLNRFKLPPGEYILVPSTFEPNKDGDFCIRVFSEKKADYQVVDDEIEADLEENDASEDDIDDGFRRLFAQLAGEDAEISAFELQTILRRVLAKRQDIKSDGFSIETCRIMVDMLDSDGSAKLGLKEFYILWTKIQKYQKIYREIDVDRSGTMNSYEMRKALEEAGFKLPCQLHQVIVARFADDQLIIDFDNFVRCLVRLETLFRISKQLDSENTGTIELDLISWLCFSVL

Prothrombin = Prothrombin (Bos taurus, UniProt P00735); assay: thrombin protease inhibitors – biochemical, fluorescence polarization, uHTS hits, dose response (AID 602369); assay type: functional
[10] = biological target: T3, Sentrin-specific protease 1 (Homo sapiens, UniProt Q9P0U3); assay: SENP1 catalytic domain blockers, concentration series – biochemical, kinetic FRET, dose response (AID 651697); assay type: functional; conditions: read-out: IC50_Mean
T3 sequence (Q9P0U3 whole entry): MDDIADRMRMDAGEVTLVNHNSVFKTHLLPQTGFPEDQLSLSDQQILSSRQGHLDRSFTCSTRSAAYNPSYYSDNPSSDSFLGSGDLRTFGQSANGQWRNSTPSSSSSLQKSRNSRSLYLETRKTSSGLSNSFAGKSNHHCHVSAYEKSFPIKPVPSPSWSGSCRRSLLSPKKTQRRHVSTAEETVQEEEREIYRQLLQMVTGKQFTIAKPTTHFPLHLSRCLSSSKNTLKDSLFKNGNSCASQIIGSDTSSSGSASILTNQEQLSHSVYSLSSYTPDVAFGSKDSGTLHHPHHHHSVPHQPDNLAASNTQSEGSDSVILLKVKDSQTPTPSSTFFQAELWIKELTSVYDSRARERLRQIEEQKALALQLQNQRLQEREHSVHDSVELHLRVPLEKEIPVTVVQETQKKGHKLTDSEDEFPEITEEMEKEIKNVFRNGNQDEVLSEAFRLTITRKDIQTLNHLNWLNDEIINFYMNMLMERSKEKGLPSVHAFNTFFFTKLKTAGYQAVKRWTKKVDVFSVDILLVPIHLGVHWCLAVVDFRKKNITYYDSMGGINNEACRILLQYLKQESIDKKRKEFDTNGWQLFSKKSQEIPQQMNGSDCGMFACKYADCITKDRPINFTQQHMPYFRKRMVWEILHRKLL

[11] = biological target: 72 kDa type IV collagenase (Homo sapiens, UniProt P08253); assay: Dose Response validation of uHTS RPN11 inhibitor hits using a MMP-2 Fluorescence assay.; assay type: functional
[12] = biological target: T3, Sentrin-specific protease 1; assay: Dose response confirmation of small molecule inhibitors of the catalytic domain of the SUMO protease, SENP1 in a FRET assay.; assay type: functional; conditions: read-out: IC50_Mean
[13] = biological target: T4, G-protein coupled receptor 55 (Homo sapiens, UniProt Q9Y2T6); assay: inhibition of LPI-stimulated GPR55 beta-arrestin translocation – imaging, U2OS, beta-arrestin-GFP, LPI agonist, primary screen (AID 2013); assay type: functional;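 further: antagonist potency measured as reduced agonist-driven arrestin aggregation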
[14] = biological target: 26S proteasome non-ATPase regulatory subunit 14 (Homo sapiens, UniProt O00487); assay: inhibition of proteasome subunit RPN11 – biochemical, fluorescence polarization, uHTS hits, confirmation (AID 602368); assay type: functional
[15] = biological target: T4, G-protein coupled receptor 55; assay: selective activators of receptor GPR55 – imaging, U2OS cells, beta-arrestin-GFP redistribution, primary screen (AID 1961); assay type: functional
[16] = biological target: Disintegrin and metalloproteinase domain-containing protein 17 (Homo sapiens, UniProt P78536); assay: exosite inhibitors of ADAM17, dose response, biochemical (AID 743260)
[17] = inhibition of ADAM10 peptide cleavage – biochemical, FRET peptide substrate, recombinant human ADAM10, selectivity assay for ADAM17 exosite inhibitor project, dose response (AID 743259);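 further: ADAM10 enzyme cleaving a FRET peptide substrate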
[18] = biological target: T5, Mannose-6-phosphate isomerase (Homo sapiens, UniProt P34949); assay: phosphomannose isomerase inhibition – biochemical, fluorescence intensity, confirmation (AID 1535)
T5 sequence (P34949 whole entry): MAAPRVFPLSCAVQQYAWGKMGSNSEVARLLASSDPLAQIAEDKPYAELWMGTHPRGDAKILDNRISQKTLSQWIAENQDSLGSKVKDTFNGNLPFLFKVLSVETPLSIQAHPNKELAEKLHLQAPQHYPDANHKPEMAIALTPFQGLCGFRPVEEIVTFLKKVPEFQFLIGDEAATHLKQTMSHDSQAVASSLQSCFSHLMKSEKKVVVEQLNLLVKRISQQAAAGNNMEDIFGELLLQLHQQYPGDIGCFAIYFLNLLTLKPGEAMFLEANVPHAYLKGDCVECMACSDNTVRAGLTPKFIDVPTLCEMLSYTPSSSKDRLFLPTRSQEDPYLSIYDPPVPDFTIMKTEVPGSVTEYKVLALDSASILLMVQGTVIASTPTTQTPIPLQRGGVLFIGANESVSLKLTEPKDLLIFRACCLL

[19] = biological target: T6, Alkaline phosphatase, tissue-nonspecific isozyme (Homo sapiens, UniProt P05186); assay: potency against alkaline phosphatase TNAP – biochemical, luminescent, dose response, SAR follow-up (AID 1056)
T6 sequence (P05186 whole entry): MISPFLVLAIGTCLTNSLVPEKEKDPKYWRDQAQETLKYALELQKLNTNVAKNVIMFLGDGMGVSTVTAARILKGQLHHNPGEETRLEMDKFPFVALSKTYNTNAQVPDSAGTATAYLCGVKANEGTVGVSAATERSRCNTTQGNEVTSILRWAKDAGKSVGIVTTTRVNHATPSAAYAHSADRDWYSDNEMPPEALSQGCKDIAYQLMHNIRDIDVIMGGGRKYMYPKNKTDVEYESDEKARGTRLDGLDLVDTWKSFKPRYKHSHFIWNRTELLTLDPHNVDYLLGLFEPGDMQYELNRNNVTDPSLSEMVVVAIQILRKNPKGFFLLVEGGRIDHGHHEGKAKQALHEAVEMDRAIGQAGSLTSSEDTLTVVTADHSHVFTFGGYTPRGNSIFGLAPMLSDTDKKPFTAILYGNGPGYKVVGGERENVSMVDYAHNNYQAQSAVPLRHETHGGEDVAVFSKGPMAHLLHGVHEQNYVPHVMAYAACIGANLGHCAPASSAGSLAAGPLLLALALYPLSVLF

Phosphomannomutase 2 = biological target: T7, Phosphomannomutase 2 (Homo sapiens, UniProt O15305); assay: Counter screen SAR assay for PMM2 inhibitors via a fluorescence intensity assay. [Related pubchem assays (depositor defined):AID1545, AID1574]
T7 sequence (O15305 whole entry): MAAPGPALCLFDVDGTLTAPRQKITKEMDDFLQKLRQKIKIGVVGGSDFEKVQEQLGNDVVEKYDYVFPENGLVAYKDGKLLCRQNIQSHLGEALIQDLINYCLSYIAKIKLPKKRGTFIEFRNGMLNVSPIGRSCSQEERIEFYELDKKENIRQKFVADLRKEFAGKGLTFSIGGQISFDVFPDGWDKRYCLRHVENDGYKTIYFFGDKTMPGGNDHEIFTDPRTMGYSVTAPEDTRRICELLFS

[20] = biological target: Phosphoethanolamine/phosphocholine phosphatase (Homo sapiens, UniProt Q8TCT1); assay: SAR assay for compounds that inhibit PHOSPHO1. [Related pubchem assays (depositor defined):AID1545, AID1565, AID1574]
Paired box protein Pax-8 = Paired box protein Pax-8 (Homo sapiens, UniProt Q06710); assay: PAX8 transcriptional activity inhibition in RMG-I – RMG-I cells, luciferase, cherry-pick, dose response (AID 687027); assay type: functional, cell-based;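 further: luciferase reporter driven by Pax8 target thyroperoxidase promoter measured by SteadyGlo luminescence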
[21] = Luminescent dose response cell-based high throughput screening assay for inhibitors of the Janus kinase 2 mutant JAK2V617F. [Related pubchem assays: 1446 (Primary screen.), 1521 (Confirmation assay.), 1486 (Counter screen.)]; assay type: functional
Aminopeptidase N = biological target: T8, Aminopeptidase N (Plasmodium falciparum FcB1/Columbia, UniProt O96935); assay: malaria alanyl aminopeptidase activity blockers – biochemical, fluorogenic H-Leu-NHMec substrate, 1536-well (AID 1445); set-up: species or system Plasmodium falciparum 3D7, 3D7
T8 sequence (O96935 whole entry): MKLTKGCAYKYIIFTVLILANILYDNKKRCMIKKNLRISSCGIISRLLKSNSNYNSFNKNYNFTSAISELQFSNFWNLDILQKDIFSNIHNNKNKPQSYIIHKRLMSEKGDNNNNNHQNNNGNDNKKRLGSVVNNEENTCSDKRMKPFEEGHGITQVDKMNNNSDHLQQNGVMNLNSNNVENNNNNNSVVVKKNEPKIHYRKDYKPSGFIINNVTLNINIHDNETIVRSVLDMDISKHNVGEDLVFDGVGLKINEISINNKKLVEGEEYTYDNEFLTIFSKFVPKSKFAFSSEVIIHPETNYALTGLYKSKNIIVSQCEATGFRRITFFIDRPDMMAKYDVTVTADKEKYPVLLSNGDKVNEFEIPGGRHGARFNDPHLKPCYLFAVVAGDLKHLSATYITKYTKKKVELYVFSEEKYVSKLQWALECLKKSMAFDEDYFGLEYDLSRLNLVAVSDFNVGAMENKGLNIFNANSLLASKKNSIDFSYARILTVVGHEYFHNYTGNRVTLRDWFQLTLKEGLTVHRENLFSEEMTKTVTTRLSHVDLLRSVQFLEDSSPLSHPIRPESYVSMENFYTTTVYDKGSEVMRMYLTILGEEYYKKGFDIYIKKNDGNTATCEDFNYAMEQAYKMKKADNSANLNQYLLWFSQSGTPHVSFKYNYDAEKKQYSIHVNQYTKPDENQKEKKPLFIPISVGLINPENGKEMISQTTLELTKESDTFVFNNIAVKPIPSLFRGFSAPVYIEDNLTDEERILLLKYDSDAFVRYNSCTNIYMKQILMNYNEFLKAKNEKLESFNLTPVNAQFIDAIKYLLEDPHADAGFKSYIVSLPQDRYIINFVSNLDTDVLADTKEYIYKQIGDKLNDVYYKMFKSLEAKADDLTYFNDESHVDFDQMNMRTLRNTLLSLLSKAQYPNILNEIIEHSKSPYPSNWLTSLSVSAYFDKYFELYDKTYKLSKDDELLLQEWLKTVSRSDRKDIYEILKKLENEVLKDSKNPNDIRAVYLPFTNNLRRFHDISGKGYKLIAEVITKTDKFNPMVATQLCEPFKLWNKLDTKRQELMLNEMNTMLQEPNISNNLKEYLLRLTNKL

T4 sequence (Q9Y2T6 whole entry): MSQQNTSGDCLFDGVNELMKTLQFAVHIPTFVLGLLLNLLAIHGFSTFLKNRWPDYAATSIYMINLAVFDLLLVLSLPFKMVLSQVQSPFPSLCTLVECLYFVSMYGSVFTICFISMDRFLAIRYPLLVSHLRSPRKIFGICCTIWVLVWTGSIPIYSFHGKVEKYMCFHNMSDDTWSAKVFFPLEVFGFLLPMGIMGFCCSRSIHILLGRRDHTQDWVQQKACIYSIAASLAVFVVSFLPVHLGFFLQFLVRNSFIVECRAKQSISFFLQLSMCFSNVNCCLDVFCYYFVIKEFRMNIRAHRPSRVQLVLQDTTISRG
Sequence of Paired box protein Pax-8 (Q06710 whole entry): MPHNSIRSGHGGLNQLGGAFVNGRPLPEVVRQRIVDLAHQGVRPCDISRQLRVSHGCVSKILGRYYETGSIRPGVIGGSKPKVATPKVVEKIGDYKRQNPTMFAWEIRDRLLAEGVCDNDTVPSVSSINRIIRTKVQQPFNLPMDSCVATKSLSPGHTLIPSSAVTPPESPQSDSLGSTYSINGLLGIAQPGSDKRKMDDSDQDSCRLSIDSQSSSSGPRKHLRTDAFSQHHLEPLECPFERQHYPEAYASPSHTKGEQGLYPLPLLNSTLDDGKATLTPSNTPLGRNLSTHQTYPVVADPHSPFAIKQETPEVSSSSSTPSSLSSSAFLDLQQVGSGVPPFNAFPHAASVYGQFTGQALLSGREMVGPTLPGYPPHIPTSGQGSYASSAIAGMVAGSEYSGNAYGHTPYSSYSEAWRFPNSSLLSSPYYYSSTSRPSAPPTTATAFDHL
Sequence of FAD-linked sulfhydryl oxidase ALR (P55789 whole entry): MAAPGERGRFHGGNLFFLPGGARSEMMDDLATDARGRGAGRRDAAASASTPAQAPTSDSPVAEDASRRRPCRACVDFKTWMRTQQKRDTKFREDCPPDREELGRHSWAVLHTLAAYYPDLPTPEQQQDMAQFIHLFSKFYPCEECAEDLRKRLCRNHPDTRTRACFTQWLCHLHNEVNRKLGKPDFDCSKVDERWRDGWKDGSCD
Sequence of 72 kDa type IV collagenase (P08253 whole entry, the tested form may be a part): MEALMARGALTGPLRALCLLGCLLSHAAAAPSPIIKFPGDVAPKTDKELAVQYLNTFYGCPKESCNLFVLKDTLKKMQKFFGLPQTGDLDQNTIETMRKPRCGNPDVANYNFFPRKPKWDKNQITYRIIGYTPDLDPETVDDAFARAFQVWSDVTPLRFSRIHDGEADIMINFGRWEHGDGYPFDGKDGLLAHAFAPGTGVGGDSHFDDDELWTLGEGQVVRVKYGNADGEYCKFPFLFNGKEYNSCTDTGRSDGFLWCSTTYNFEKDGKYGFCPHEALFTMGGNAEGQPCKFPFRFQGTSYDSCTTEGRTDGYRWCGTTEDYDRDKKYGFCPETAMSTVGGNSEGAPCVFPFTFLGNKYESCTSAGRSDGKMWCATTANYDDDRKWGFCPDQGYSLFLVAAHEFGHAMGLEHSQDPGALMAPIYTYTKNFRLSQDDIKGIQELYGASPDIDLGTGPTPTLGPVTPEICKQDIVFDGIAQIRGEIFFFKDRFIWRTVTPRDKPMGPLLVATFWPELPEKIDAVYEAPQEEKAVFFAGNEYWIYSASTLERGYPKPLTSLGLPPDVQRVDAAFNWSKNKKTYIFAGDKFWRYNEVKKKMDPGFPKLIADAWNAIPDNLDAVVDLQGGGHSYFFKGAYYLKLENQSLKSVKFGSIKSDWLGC
Sequence of Phosphoethanolamine/phosphocholine phosphatase (Q8TCT1 whole entry): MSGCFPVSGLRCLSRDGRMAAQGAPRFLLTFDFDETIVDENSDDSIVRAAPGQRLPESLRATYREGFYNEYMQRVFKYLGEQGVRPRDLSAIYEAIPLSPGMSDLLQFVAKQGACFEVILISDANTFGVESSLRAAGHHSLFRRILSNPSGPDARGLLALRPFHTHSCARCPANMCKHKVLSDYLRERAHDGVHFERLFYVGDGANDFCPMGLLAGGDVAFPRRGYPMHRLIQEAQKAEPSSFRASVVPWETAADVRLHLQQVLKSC
Sequence of 26S proteasome non-ATPase regulatory subunit 14 (O00487 whole entry): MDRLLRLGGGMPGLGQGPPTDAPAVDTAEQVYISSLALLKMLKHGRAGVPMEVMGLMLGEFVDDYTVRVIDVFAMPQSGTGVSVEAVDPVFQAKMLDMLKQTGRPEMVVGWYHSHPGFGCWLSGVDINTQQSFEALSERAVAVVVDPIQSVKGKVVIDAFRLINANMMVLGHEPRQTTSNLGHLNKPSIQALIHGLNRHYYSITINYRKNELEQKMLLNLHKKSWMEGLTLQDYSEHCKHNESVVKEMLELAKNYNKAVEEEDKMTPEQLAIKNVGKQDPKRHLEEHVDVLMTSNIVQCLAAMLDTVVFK
Sequence of Disintegrin and metalloproteinase domain-containing protein 17 (P78536 whole entry, the tested form may be a part): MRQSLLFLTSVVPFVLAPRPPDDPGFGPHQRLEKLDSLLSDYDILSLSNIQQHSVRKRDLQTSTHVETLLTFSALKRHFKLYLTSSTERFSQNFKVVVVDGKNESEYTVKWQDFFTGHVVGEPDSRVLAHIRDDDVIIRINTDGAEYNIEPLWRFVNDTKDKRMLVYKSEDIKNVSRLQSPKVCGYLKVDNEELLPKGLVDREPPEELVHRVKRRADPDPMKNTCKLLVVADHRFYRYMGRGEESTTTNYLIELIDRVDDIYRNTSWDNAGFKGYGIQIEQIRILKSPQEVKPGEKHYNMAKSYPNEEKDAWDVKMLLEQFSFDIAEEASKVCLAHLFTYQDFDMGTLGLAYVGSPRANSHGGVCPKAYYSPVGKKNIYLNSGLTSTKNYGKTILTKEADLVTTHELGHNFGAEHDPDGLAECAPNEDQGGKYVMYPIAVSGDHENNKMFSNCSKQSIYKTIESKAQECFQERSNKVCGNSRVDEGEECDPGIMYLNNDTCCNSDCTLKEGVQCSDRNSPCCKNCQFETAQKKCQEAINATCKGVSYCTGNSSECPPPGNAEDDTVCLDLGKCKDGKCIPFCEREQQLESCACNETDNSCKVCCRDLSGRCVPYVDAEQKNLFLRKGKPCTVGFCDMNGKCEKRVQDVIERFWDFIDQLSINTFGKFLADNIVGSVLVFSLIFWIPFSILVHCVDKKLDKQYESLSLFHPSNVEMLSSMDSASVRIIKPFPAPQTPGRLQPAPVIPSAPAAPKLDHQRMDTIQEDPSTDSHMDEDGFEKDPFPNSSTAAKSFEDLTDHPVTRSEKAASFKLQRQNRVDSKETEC

CN(C)CCCNc1cc(C(C)(C)C)nc2c(-c3ccccc3)cnn12
IC50 (cells): 19.8 µM (active)
EC50 [1]: 0.574 µM (active)
AC50 [2]: 15.5 µM (active)
EC50 [3]: 4.96 µM (active)
CC50 [4]: > 20 µM (active)
CC50 [5]: > 20 µM (active)
AC50 (INS1): 13.8 µM (active)
IC50 [6]: > 20 µM (inactive)
AC50 [7]: 2.53 µM (active)
CC50 [8]: 24.5 µM (active)

O=C(NCCSCc1ccccc1)c1ccc(C2SCC(=O)N2Cc2ccccc2)cc1 (stereo not given)
IC50 [9]: 4.77 µM (not active)
IC50 (Prothrombin): 50.5 µM (active)
IC50 [10]: 11 µM (active)
IC50 [11]: > 100 µM (inactive)
IC50 [12]: 19.1 µM (active)
IC50 [13]: 1.49 µM (active)
IC50 [14]: 37.5 µM (active)

CCCOc1ccc(/C=C2/C(=O)ON=C2C)cc1Cl
EC50 [15]: > 32 µM (inactive)

CCOC(=O)c1cc(C#N)c(Oc2ccccc2)nc1-c1ccccc1
IC50 [13]: 1.69 µM (active)

Cc1ccc(C(=O)N2CCN(C3c4cccc5cccc(c45)C3NS(=O)(=O)c3ccccc3)CC2)cc1 (stereo not given)
IC50 [16]: > 69.5 µM (inactive)
IC50 [17]: > 69.5 µM (inactive)
EC50 [15]: 3.68 µM (active)

O=c1c2ccccc2sn1-c1ccc(Cl)c(S(=O)(=O)N2CCOCC2)c1
IC50 [18]: 8.58 µM (active)
IC50 [19]: > 100 µM (inactive)
IC50 (Phosphomannomutase 2): 55.3 µM (active)
IC50 [20]: 1.07 µM (inactive)

O=C(Nc1cccc(NC(=O)c2cccs2)c1)c1ccc([N+](=O)[O-])o1
IC50 (cells): 4.05 µM (active)
EC50 [1]: 0.104 µM (active)
EC50 [3]: > 60 µM (not active)
CC50 [4]: 11.9 µM (active)
AC50 (Paired box protein Pax-8): 4.04 µM (active)
CC50 [5]: 11 µM (active)
IC50 [21]: 1.57 µM (active)
CC50 [8]: 7.45 µM (active)
IC50 (Aminopeptidase N): 49.8 µM (active)
